Measurements as given in patent US8173428B2, “LNA oligonucleotides and the treatment of cancer” (Santaris Pharma A/S, priority 2004, dated 2012).
Like-named read-outs stand apart in the source and are kept apart here. Oligonucleotides are written 5' to 3', each unit as a sugar letter and its base; * is a phosphorothioate linkage, no mark a phosphodiester; rarer units and linkages stand in square brackets, end groups in braces. Plain capitals give the bases only. l = locked nucleic acid (LNA); [5mC] = 5-methylcytosine; d = 2'-deoxy (DNA)

Legend:
human Survivin RNA = assay: Survivin mRNA knockdown in transfected 15PC3 cells by real-time PCR; assay type: cell-based
Procedure: Cell culturing and transfections: 15PC3 cells were seeded in 12-well plates and grown for two days at 37° C. (5% CO2) in DMEM supplemented with 10% FBS, Glutamax I and Gentamicin. When the cells were 60-70% confluent, they were transfected in duplicates with different concentrations of oligonucleotides (0.2-25 nM) using Lipofectamine 2000 (10 μg/ml). Transfections were carried out essentially as described by Dean et al. (1994, JBC 269:16416-16424). In short, cells were incubated for 10 min. with Lipofectamine in OptiMEM followed by addition of oligonucleotide to a total volume of 0.5 ml transfection mix per well. […] Cells were then harvested for protein and RNA analysis.
Total RNA was isolated using RNeasy mini kit (Qiagen). Cells were washed with PBS, and Cell Lysis Buffer (RTL, Qiagen) supplemented with 1% mercaptoethanol was added directly to the wells. After a few minutes, the samples were processed according to manufacturer's instructions.
First strand synthesis was performed using OmniScript Reverse Transcriptase kit according to the manufacturer's instructions (Qiagen). For each sample, 0.5 μg total RNA was adjusted to 12 μl and mixed with 0.2 μl poly (dT)12-18 (0.5 μg/μl) (Life Technologies), 2 μl dNTP mix (5 mM each), 2 μl 10× RT buffer, 0.5 μl RNAguard™ RNase Inhibitor (33 units/ml, Amersham) and 1 μl OmniScript Reverse Transcriptase followed by incubation at 37° C. for 60 min. and heat inactivation at 93° C. for 5 min.
To determine the relative Survivin mRNA level in oligonucleotide treated and untreated cells, the generated cDNA was used in quantitative PCR analysis using an iCycler from BioRad. The cDNA was diluted 5-fold and 8 μl was mixed with 52 μl Taqman probe master mix containing 30 μl Platinum Quantitative PCR SuperMix UDG 2×PCR master mix (Invitrogen), 3 μl 20× Taqman probe and primer mix (forward primer: 5′[…] (SEQ ID NO:29), final 0.9 μM. Reverse primer: 5′[…] (SEQ ID NO:30), final 0.6 μM and taqman probe: FAM-[…]-TAMRA (SEQ ID NO:31), final 0.1 μM) and 19 μl H2O. The 60 μl were dispersed in two wells (96 well plates) with […] in each well. For human Bcl-2 the PCR primers were: […]
The primers and probe were obtained from […] (France). To normalize any variance in sample preparation, the endogenous GAPDH mRNA was quantified using a pre-developed Taqman assay reagent from Applied Biosystems (4310884E) according to manufacturer's Instructions. Two-fold dilutions of cDNA, synthesised from untreated 15PC3 cells (expressing both Survivin and GAPDH), was used to prepare standard curves for the assays. The PCR program was as follows: 50° C. for 2 min., 95° C. for 10 min. followed by 40 cycles of 95° C. 15 sec., 60° C. 1 min. Relative quantities of Survivin mRNA were determined from the calculated threshold cycle using the iCycler IQ Real Time Detection System software.
In accordance with the present invention, a series of oligonucleotides were designed to target different regions of the human Survivin RNA, using published sequences (GenBank accession number NM_001168).
LNA oligonucleotides were evaluated for their potential to knockdown Survivin mRNA in 15PC3 cells. The data are presented as percentage down-regulation relative to mock transfected cells. Transcript steady state was monitored by Real-time PCR and normalised to the GAPDH transcript steady state, see Table 3. Note that all LNA C are 5-methyl-Cytosine.

15PC3 cells [1] = assay: Caspase 3/7 activity (apoptosis) in transfected 15PC3 cells; assay type: cell-based, human; settings: for Apoptosis At 5 nM, 24 hours: 24 hours (Table 7, FIG. 3); for Max Apoptosis: 25 nM, 48 hours (Table 7)
Procedure: (§1) Culturing of cells: 15PC3 was cultured in DMEM (Sigma) containing 10% fetal bovine serum, Glutamax I and gentamicin at 37° C., 95% humidity and 5% CO2. The cervical carcinoma cell line HeLa were cultured in MEM (Sigma) containing 10% fetal bovine serum, Glutamax I and gentamicin at 37° C., 95% humidity and 5% CO2. When reaching 60-70% confluency, the cells were transfected using Lipofectamine 2000 (5 μg/ml).
15PC3 cells were seeded to a density of 10000 cells per well in white 96-well plates (Nunc 136101) in DMEM the day prior to transfection. The next day cells were washed once in prewarmed OptiMEM followed by addition of 72 μl OptiMEM containing 5 μg/ml Lipofectamine-2000 (In vitrogen). Cells were incubated for 7 min before adding 18 μl oligonucleotides diluted in OptiMEM. The final oligonucleotide concentration ranged from 0.2 nM to 100 nM. After 4 hours of treatment, cells were washed in OptiMEM and 100 μl DMEM containing serum was added. Following oligonucleotide treatment, cells were allowed to recover for the period indicated before they were removed from the CO2 incubator and equilibrated to room temperature for 15 min. 100 μl of the highly sensitive Caspase 3/7-Glo™ Reagent (Promega) was added directly to the cells, and the plates were incubated for 20 min. Luminescence (luciferase activity) was recorded in a Luminoskan Ascent instrument (Thermo Labsystems). The luciferase activity is measured as Relative Light Units per seconds (RLU/s). The data was analysed using the Ascent software 2.4.2. Graphs of fold induction relative to mock were generated using MS Excel.
Staurosporine, Camptothecine or Taxol induced cells served as positive controls (see FIGS. 3, 6A and Table 4 plus Example 21).

15PC3 cells [2] = assay: MTS assay of proliferating viable cells; assay type: cell-based, human
Procedure: as §1
Cells were seeded to a density of 10000 cells per well in clear 96 well plate (Scientific Orange no. 1472030100) in DMEM the day prior to transfection. The next day cells were washed once in prewarmed OptiMEM followed by addition of 72 μl OptiMEM containing 5 μg/ml Lipofectamine 2000 (Invitrogen). Cells were incubated for 7 min before adding 18 μl oligonucleotides diluted in OptiMEM. […] After 4 hours of treatment, cells were washed in OptiMEM and 100 μl serum containing DMEM was added. Following oligonucleotide treatment cells were allowed to recover for the period indicated, viable cells were measured by adding 20 μl of the tetrazolium compound [3-(4,5-[…])-5-(3-carboxymethoxyphenyl)-2-(4-sulfophenyl)-2H-tetrazolium, inner salt; MTS] and an electron coupling reagent (phenazine ethosulfate, PES; CellTiter 96® AQueous One Solution Cell Proliferation Assay, Promega). Viable cells were measured at 490 nm and 650 nm in a Powerwave (Biotek Instruments).
The inhibition of growth rate ΔOD (490-650 nm)/h was plotted against the oligonucleotide concentration relative to mock, which was set to 100%. The maximum inhibition of proliferation observed in the MTS assay was 70% (minimum 30%). (Table 5 and FIG. 5)

complementary RNA = assay: Measurement of melting temperature (Tm) of the duplex; assay type: binding; settings: 3 μM, 10 mM sodium phosphate/100 mM NaCl/0.1 nM EDTA, pH 7.0
Procedure: Measurement of melting temperature (Tm) of the compounds: A 3 μM solution of SEQ ID NO. 2 in 10 mM sodium phosphate/100 mM NaCl/[…], pH 7.0 was mixed with its complement DNA/RNA 3 μM in 10 mM sodium phosphate/100 mM NaCl/[…], pH 7.0 at 90° C. for a minute and allowed to cool to room temperature. The Tm of the duplex was then determined by increasing the temperature 1° C./min. from 25 to 95° C. The Tm of SEQ ID NO.

15PC3 cells [3] = assay: Cell cycle analysis by propidium iodide staining and FACS; assay type: cell-based, human; settings: 10 nM, 24 hours, 15PC3 cells
Procedure: Cell culturing: Human prostate cancer 15PC3 cells (kindly provided by Dr. F Baas, Neurozintuigen Laboratory, AMC, The Netherlands) were seeded to a density of 8×10E5 cells in T75-flasks and grown for two days at 37° C. and 5% CO2 in DMEM supplemented with 10% FBS, Glutamax and Gentamicin. Two days following seeding cells were transfected with 2-10 nM SEQ ID NO. 2 using Lipofectamine at a final conc. of 7.5 μg/ml. Transfections were carried out as described by Dean et al. (1994, JBC 269 p. 16416 16424). In short cells were incubated with Lipofectamine diluted in OptiMEM for 7-10 min followed by the addition of the oligonucleotide to total volume of 8.7 ml per T75 flask. 4 hours following transfection cells were washed in OptiMEM and grown at 37° C. for 12-96 hours in complete growth medium with or without the addition of 2-100 nM Taxol (Sigma Aldrich). Cells were harvested for either mRNA extraction, Caspase 3/7 assay or fixed, stained with PI and analysed by FACS analysis.
Cell culturing and transfections: As in example 13.
Fixation and PI staining: Cells were washed in PBS, harvested and resuspended in 100 μl in ice cold PBS. 900 μl ice cold 70% […] and fixed cells were kept at −20 until use. […]
SEQ ID NO. 2 transfected 15PC3 cells were exposed to different concentrations of Taxol and analysed by Propidium Iodide staining and subsequent FACS analysis (FIG. 7a-c). […]

HeLa cells = assay: Annexin V-FITC/PI flow cytometry analysis; assay type: cell-based, human; settings: 5 nM or 25 nM
Procedure: as §1
0.4×10^6 HeLa cells were seeded in T25 flasks one day prior to transfection. On the day of transfection, the cells were washed once in 37° C. OptiMEM followed by addition of 2.8 ml OptiMEM containing 5 μg/ml Lipofectamine-2000 (In vitrogen). Cells were incubated for 7 min before adding 700 μl oligonucleotides diluted in OptiMEM to a final concentration of 5 nM or 25 nM, Mock transfected cells served as control. After 4 hours of treatment cells were washed in OptiMEM and 3 ml culture medium was added. Following oligonucleotide treatment cells were allowed to recover for 48 hours before they were harvested by scraping and washed twice in PBS. 0.2×10^6 cells were incubated with 5 μl Annexin V-FITC and 10 μl propidium iodide (PI-10 mg/ml) and incubated for 15 min at room temperature in the dark. […] Moreover, TRAIL (Apo2L) induced HeLA cells (0.5 μg/ml) were used as positive control. (See FIG. 4)

[4] = Survivin mRNA down-regulation relative to mock, normalised to GAPDH, standard deviation in brackets, at least three experiments
[5] = 48 hours (Table 7, FIG. 5), read-out: Proliferation IC50 (48 hours)

## 5′-Gs^MeCsAsGstsgsgsastsgsasasGs^MeCs^MeCsA-3′ (lG*l[5mC]*lA*lG*dT*dG*dG*dA*dT*dG*dA*dA*lG*l[5mC]*l[5mC]*lA) [SEQ ID NO. 23, reference compound]
Human Survivin RNA; [4]
  IC50: 0.0025 µM
  IC75 [nM]: 6.2 (1.6) nM
15PC3 cells [1]; 5 nM
  Apoptosis At 5 nM, 24 hours: 2-fold
15PC3 cells [1]
  Max Apoptosis: 5.5-fold

## 5′-Gs^MeCsAs^MeCsasgststsgsasasas^MeCsAsTsc-3′ (lG*l[5mC]*lA*l[5mC]*dA*dG*dT*dT*dG*dA*dA*dA*l[5mC]*lA*lT*dC) [SEQ ID NO. 22]
15PC3 cells [1]; 5 nM
  Apoptosis At 5 nM, 24 hours: No activity
15PC3 cells [1]
  Max Apoptosis: 2.5-fold
15PC3 cells [2]; [5]
  IC50: 0.025 µM

## TsGsTsGscstsaststscstsgstsgsAsAsTsT (lT*lG*lT*lG*dC*dT*dA*dT*dT*dC*dT*dG*dT*dG*lA*lA*lT*lT) [SEQ ID NO. 21]
Complementary RNA
  Tm (° C.) complementary RNA: 62.7 °C
15PC3 cells [1]; 5 nM
  Apoptosis At 5 nM, 24 hours: No activity
15PC3 cells [1]
  Max Apoptosis: 2.5-fold
15PC3 cells [2]; [5]
  IC50: 0.025 µM

## ^MeCsGs^MeCsAsgsaststsasgsasasAs^MeCs^MeCst (l[5mC]*lG*l[5mC]*lA*dG*dA*dT*dT*dA*dG*dA*dA*lA*l[5mC]*l[5mC]*dT) [SEQ ID NO. 24, negative control oligonucleotide, design 4-8-3-1]
15PC3 cells [3]
  Effect on the cell cycle: no effect on the cell cycle
HeLa cells
  Induction of early and late apoptosis (Annexin V-FITC/PI staining): do not induce apoptosis
15PC3 cells [1]; 100 nM, 48 hours, 15PC3 cells
  Maximum Induction Fold-induction of apoptosis, Caspase 3/7 assay: 3.1 x (100 nM, 48 hours)
15PC3 cells [1]; 24 hours, 5 nM, 15PC3 cells, relative to mock
  Fold induction of apoptosis, Caspase 3/7 assay: 1.5 x
15PC3 cells [2]; 0.2, 1, 5, 25 and 100 nM, 13-72 hours after transfection, 15PC3 cells
  Proliferation (relative number of viable cells): does not
15PC3 cells [2]; 48 hours, transfected 15PC3 cells (Table 5), read-out: Inhibition of proliferation, MTS assay IC50 (48 hours)
  IC50: 0.0869 µM

## ^MeCsTscscscsasgscsgstsgscsgs^MeCs^MeCsa (l[5mC]*lT*dC*dC*dC*dA*dG*dC*dG*dT*dG*dC*dG*l[5mC]*l[5mC]*dA) [SEQ ID NO. 26, reference compound]
Human Survivin RNA; 10 nM, 24 hours, single agent or combined with control oligonucleotides
  Survivin mRNA expression: does not have any effect on Survivin
